Test results reported in US10588317B2, “Isoxazoline-substituted benzamides and analogues as insecticides” (priority 2015, dated 2020).

Legend:
Format in all cases: in vivo
Spodoptera littoralis [1] = assay: Spodoptera littoralis (Egyptian cotton leaf worm), sprayed cotton leaf discs; conditions: foliar, 72 h, application rate 200 ppm, L1 larvae, 3 days after infestation, read-out: control (mortality, anti-feeding effect, growth inhibition)
Method in brief: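 Five first-instar larvae placed on dried cotton leaf discs (on agar) previously sprayed with aqueous dilutions of 10'000 ppm DMSO stocks. Scored at 3 days against untreated discs for mortality, feeding inhibition and growth inhibition; any category above untreated counts as control.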

Spodoptera littoralis [2] = assay: Spodoptera littoralis (Egyptian cotton leaf worm), uptake by lettuce roots from agar; conditions: 144 h, read-out: effect in at least one of the three categories (mortality, anti-feeding, or growth inhibition)
From the text: Test compounds were applied by pipette from 10'000 ppm DMSO stock solutions into 24-well plates and mixed with agar. Lettuce seeds were placed onto the agar and the multi well plate was closed by another plate which contained also agar. After 7 days the compound was absorbed by the roots and the lettuce grew into the lid plate. The lettuce leaves were then cut off into the lid plate. Spodoptera eggs were pipetted through a plastic stencil onto a humid gel blotting paper and the lid plate was closed with it. The samples were assessed for mortality, anti-feedant effect and growth inhibition in comparison to untreated samples 6 days after infestation.
The following compounds gave an effect of at least 80% in at least one of the three categories (mortality, anti-feeding, or growth inhibition) at a test rate of 12.5 ppm: […]

Tetranychus urticae = Tetranychus urticae (two-spotted spider mite): feeding/contact activity; conditions: 192 h, application rate 200 ppm, mixed population (mobile stages), 8 days after infestation, read-out: mortality
Method: Bean leaf discs on agar in 24-well microtiter plates were sprayed with aqueous test solutions prepared from 10'000 ppm DMSO stock solutions. After drying the leaf discs were infested with a mite population of mixed ages. The samples were assessed for mortality on mixed population (mobile stages) 8 days after infestation.

Plutella xylostella = Plutella xylostella (diamond back moth), artificial diet; conditions: 120 h, application rate 200 ppm, L2 larvae, 5 days after infestation, read-out: effect in at least one of the two categories (mortality or growth inhibition)
Method in brief: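 L2 larvae (10-15 per well) fed on compound-treated, dried artificial diet; test solutions diluted in water from 10'000 ppm DMSO stocks. Readout 5 days post-infestation as mortality or growth inhibition versus untreated diet, with at least 80% effect at 200 ppm as threshold.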

Diabrotica balteata = Diabrotica balteata (corn root worm), sprayed maize sprouts; conditions: 96 h, application rate 200 ppm, L2 larvae, 4 days after infestation, read-out: effect in at least one of the two categories (mortality or growth inhibition)
Method in brief: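 Read-out at 4 days post-infestation: mortality and growth inhibition relative to untreated samples. Test solutions (200 ppm, from DMSO stocks) were sprayed onto agar-held maize sprouts, which after drying received 6–10 L2 larvae per well.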

Euschistus heros = Euschistus heros (neotropical brown stink bug), sprayed soybean leaves; conditions: 120 h, application rate 200 ppm, N2 nymphs, 5 days after infestation, read-out: effect in at least one of the two categories (mortality or growth inhibition)
Method in brief: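 Scored 5 days post-infestation versus untreated controls, for both mortality and growth inhibition: N2 nymphs placed on agar-mounted soybean leaves previously sprayed at 200 ppm with aqueous test solutions from DMSO stocks and left to dry.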

Thrips tabaci = Thrips tabaci (onion thrips): feeding/contact activity; conditions: 144 h, application rate 200 ppm, Thrips population of mixed ages, 6 days after infestation, read-out: mortality
Method: Sunflower leaf discs were placed on agar in 24-well microtiter plates and sprayed with aqueous test solutions prepared from 10'000 ppm DMSO stock solutions. After drying the leaf discs were infested with a Thrips population of mixed ages. The samples were assessed for mortality 6 days after infestation.

Myzus persicae = Myzus persicae (green peach aphid): feeding/contact activity; conditions: 144 h, application rate 200 ppm, aphid population of mixed ages, 6 days after infestation, read-out: mortality
Method: Sunflower leaf discs were placed onto agar in a 24-well microtiter plate and sprayed with aqueous test solutions prepared from 10'000 ppm DMSO stock solutions. After drying, the leaf discs were infested with an aphid population of mixed ages. The samples were assessed for mortality 6 days after infestation.

CS(=O)(=O)N1CC(NC(=O)c2ccc(C3=NOC(c4cc(Cl)cc(Cl)c4)(C(F)(F)F)C3)cc2Br)CO1 (stereo not shown) [Compound A48]
≥ 80%: mortality at 200 ppm (Spodoptera littoralis [1]) | percent control (mortality, anti-feedant effect or growth inhibition) at 12.5 ppm (Spodoptera littoralis [2]) | mortality at 200 ppm (Tetranychus urticae) | percent effect (mortality or growth inhibition) at 200 ppm (Plutella xylostella) | percent effect (mortality or growth inhibition) at 200 ppm (Diabrotica balteata) | percent effect (mortality or growth inhibition) at 200 ppm (Euschistus heros) | mortality at 200 ppm (Thrips tabaci)

Cc1cc(C2=NO[C@@](c3cc(Cl)c(F)c(Cl)c3)(C(F)(F)F)C2)ccc1C(=O)NC1CON(S(=O)(=O)CC(F)(F)F)C1 (stereo partly shown) [Compound A8]
≥ 80%: mortality at 200 ppm (Spodoptera littoralis [1]) | percent control (mortality, anti-feedant effect or growth inhibition) at 12.5 ppm (Spodoptera littoralis [2]) | mortality at 200 ppm (Tetranychus urticae) | percent effect (mortality or growth inhibition) at 200 ppm (Plutella xylostella) | percent effect (mortality or growth inhibition) at 200 ppm (Diabrotica balteata) | percent effect (mortality or growth inhibition) at 200 ppm (Euschistus heros) | mortality at 200 ppm (Thrips tabaci)

Cc1cc(C2=NOC(c3cc(Cl)cc(Cl)c3)(C(F)(F)F)C2)ncc1C(=O)NC1CON(S(C)(=O)=O)C1 (stereo not shown) [Compound A236]
≥ 80%: mortality at 200 ppm (Spodoptera littoralis [1]) | percent control (mortality, anti-feedant effect or growth inhibition) at 12.5 ppm (Spodoptera littoralis [2]) | mortality at 200 ppm (Tetranychus urticae) | percent effect (mortality or growth inhibition) at 200 ppm (Plutella xylostella) | percent effect (mortality or growth inhibition) at 200 ppm (Diabrotica balteata) | percent effect (mortality or growth inhibition) at 200 ppm (Euschistus heros) | mortality at 200 ppm (Thrips tabaci)

CS(=O)(=O)N1CC(NC(=O)c2ccc(C3=NOC(c4cc(Cl)cc(Cl)c4)(C(F)(F)F)C3)cc2C2CC2)CO1 (stereo not shown) [Compound A52]
≥ 80%: mortality at 200 ppm (Spodoptera littoralis [1]) | percent control (mortality, anti-feedant effect or growth inhibition) at 12.5 ppm (Spodoptera littoralis [2]) | mortality at 200 ppm (Tetranychus urticae) | percent effect (mortality or growth inhibition) at 200 ppm (Plutella xylostella) | percent effect (mortality or growth inhibition) at 200 ppm (Diabrotica balteata) | percent effect (mortality or growth inhibition) at 200 ppm (Euschistus heros) | mortality at 200 ppm (Thrips tabaci)

CCNS(=O)(=O)N1C[C@@H](NC(=O)c2ccc(C3=NO[C@@](c4cc(Cl)c(F)c(Cl)c4)(C(F)(F)F)C3)cc2Cl)CO1 [Compound A124, 2-chloro-4-[(5S)-5-(3,5-dichloro-4-fluoro-phenyl)-5-(trifluoromethyl)-4H-isoxazol-3-yl]-N-[(4R)-2-(ethylsulfamoyl)isoxazolidin-4-yl]benzamide]
≥ 80%: mortality at 200 ppm (Spodoptera littoralis [1]) | mortality at 200 ppm (Tetranychus urticae) | mortality at 200 ppm (Myzus persicae) | percent effect (mortality or growth inhibition) at 200 ppm (Plutella xylostella) | percent effect (mortality or growth inhibition) at 200 ppm (Diabrotica balteata) | percent effect (mortality or growth inhibition) at 200 ppm (Euschistus heros) | mortality at 200 ppm (Thrips tabaci)

CNS(=O)(=O)N1C[C@@H](NC(=O)c2ccc(C3=NO[C@](c4cc(Cl)c(C(F)F)c(Cl)c4)(C(F)(F)F)C3)cc2C)CO1 [Compound A206, 4-[(5R)-5-[3,5-dichloro-4-(difluoromethyl)phenyl]-5-(trifluoromethyl)-4H-1,2-oxazol-3-yl]-2-methyl-N-[(4R)-2-(methylsulfamoyl)-1,2-oxazolidin-4-yl]benzamide]
≥ 80%: mortality at 200 ppm (Spodoptera littoralis [1]) | mortality at 200 ppm (Tetranychus urticae) | mortality at 200 ppm (Myzus persicae) | percent effect (mortality or growth inhibition) at 200 ppm (Plutella xylostella) | percent effect (mortality or growth inhibition) at 200 ppm (Diabrotica balteata) | percent effect (mortality or growth inhibition) at 200 ppm (Euschistus heros) | mortality at 200 ppm (Thrips tabaci)

Cc1cc(C2=NO[C@@](c3cc(Cl)c(Cl)c(Cl)c3)(C(F)(F)F)C2)ccc1C(=O)NC1CON(S(=O)(=O)N(C)C(C)C)C1 (stereo partly drawn) [Compound A103, N-[2-[isopropyl(methyl)sulfamoyl]isoxazolidin-4-yl]-2-methyl-4-[(5S)-5-(3,4,5-trichlorophenyl)-5-(trifluoromethyl)-4H-isoxazol-3-yl]benzamide]
≥ 80%: mortality at 200 ppm (Spodoptera littoralis [1]) | mortality at 200 ppm (Tetranychus urticae) | mortality at 200 ppm (Myzus persicae) | percent effect (mortality or growth inhibition) at 200 ppm (Plutella xylostella) | percent effect (mortality or growth inhibition) at 200 ppm (Diabrotica balteata) | percent effect (mortality or growth inhibition) at 200 ppm (Euschistus heros) | mortality at 200 ppm (Thrips tabaci)
